Molecules are shown by their SMILES. Activity calls are given as the source filed them.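 The calls were made as follows: active = compounds whose fitted IC50 falls under 25000 nM; inactive = the rest.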

In this assay the target is Serine/threonine-protein phosphatase 5 (Homo sapiens) (UniProt P53041). In words: PP5 inhibitor IC50 with OMFP, dose response, biochemical, fluorescence, round 5, 3.8 nM low dose (AID 624433). To be noted: purified PP5c, OMFP dephosphorylation.
Serine/threonine-protein phosphatase 5 (Homo sapiens), sequence (P53041 whole entry, looked up): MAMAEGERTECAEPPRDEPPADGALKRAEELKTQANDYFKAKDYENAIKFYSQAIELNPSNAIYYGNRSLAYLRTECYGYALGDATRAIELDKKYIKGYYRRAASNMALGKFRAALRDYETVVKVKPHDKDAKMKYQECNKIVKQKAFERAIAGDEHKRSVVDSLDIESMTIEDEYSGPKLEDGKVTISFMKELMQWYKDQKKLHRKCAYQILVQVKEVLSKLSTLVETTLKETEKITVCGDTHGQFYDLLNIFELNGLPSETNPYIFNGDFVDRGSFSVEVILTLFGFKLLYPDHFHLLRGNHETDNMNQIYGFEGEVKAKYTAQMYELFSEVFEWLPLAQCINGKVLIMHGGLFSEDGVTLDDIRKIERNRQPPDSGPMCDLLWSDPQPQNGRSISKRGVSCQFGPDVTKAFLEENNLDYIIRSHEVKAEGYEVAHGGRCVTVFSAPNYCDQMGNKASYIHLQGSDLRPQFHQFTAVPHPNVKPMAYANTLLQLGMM
By IC50 is commonly meant the point on the concentration scale where inhibition reaches its midpoint. As for `CC(C)c1ccccc1-c1n[nH]nc1C(=O)O`, the IC50 result was “inactive”.

For the molecule `CCOc1ccccc1-c1n[nH]nc1C(=O)O`, the IC50 was 3.62 µM.

As to `CC(C)Oc1ccccc1-c1n[nH]nc1C(=O)O`, the IC50 was 2.86 µM.

`Cc1ccccc1-c1n[nH]nc1C(=O)O`: the IC50 is 16.1 µM.

Consider `CCc1ccccc1-c1n[nH]nc1C(=O)O`, for which the IC50 is 19.9 µM.

Regarding `O=C(O)c1n[nH]nc1-c1ccccn1`, the IC50 entry was “inactive”.

As to `O=C(O)c1n[nH]nc1-c1ccccc1-c1ccccc1`, the IC50 entry is “inactive”.

Values taken from PubChem BioAssay AID624433 (The Scripps Research Institute Molecular Screening Center, 2012).
